Here are results for 24 compounds from PubChem BioAssay AID206 (DTP/NCI, 2004).

This test concerns nude mice, HT29 intrarenal xenograft, tumor weight T/C. Kind of test: NCI In Vivo Anticancer Drug Screen. Data for tumor model HT29;CX-1 Human Adenocarcinoma (MER+) (intrarenal inoculation) in NU/NU Swiss (nude) mice. Particulars: endpoint: mean tumor weight change, higher = larger tumour. The method in brief:
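T/C = treated-group value ÷ vehicle-group value, using tumor size or survival.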

Where [1] appears, read: dose: 0.5 mg/kg/injection, schedule: Q04DX004 (sc), vehicle: saline.
Setting [2] is: dose: 2.0 mg/kg/injection, schedule: Q04DX004 (sc), vehicle: saline.
The mark [3] stands for this setting: dose: 50.0 mg/kg/injection, schedule: Q04DX004 (sc), vehicle: Klucel (hydroxypropylcellulose) (HPC).
Setting [4] is: dose: 200.0 mg/kg/injection, schedule: Q04DX004 (sc), vehicle: Klucel (hydroxypropylcellulose) (HPC).
The mark [5] stands for this setting: dose: 400.0 mg/kg/injection, schedule: Q04DX004 (sc), vehicle: Klucel (hydroxypropylcellulose) (HPC).
Setting [6] is: dose: 25.0 mg/kg/injection, schedule: Q01DX010 (sc), vehicle: saline.

Several values for one entry are separate records, joined by “and”; a condition that tells them apart may be missing. Identical values can stand only once. Inconclusive results are not listed.

Consider `N#Cc1cn(C2OC(CO)C(O)C2O)c2ncnc(N)c12` (stereo not given), for which the T/C reads like this: (dose: 0.13 mg/kg/injection, schedule: Q01DX010 (sc), vehicle: saline) 81 % of control; (dose: 0.25 mg/kg/injection, schedule: Q01DX010 (sc), vehicle: saline) 171 % of control.

For `C/C=C1\C[C@@H]2C(OC)Nc3cc(O)c(OC)cc3C(=O)N2C1` (stereo not given in full), the T/C by setting is: (dose: 0.25 mg/kg/injection, schedule: Q04DX004 (sc), vehicle: saline) 113 % of control; under setting [1], 93 % of control; under setting [2], 75 % of control.

Regarding `COc1ccc(CC2C(=O)NC(C)C(=O)N(C)C3C(=O)N(C)C(Cc4ccc(O)c(c4)Oc4ccc(cc4)C3O)C(=O)NC(C)C(=O)NC(C)C(=O)N2C)cc1` (stereo not given), the T/C (dose: 0.25 mg/kg/injection, schedule: Q01DX010 (sc), vehicle: saline with Tween-80) is 94 % of control.

With `CNC(=O)OCc1c(COC(=O)NC)c(C)n(-c2ccc(OC)cc2)c1C`, the T/C by setting is: under setting [3], 69 % of control; (dose: 100.0 mg/kg/injection, schedule: Q04DX004 (sc), vehicle: Klucel (hydroxypropylcellulose) (HPC)) 90 % of control; under setting [4], 46 % of control; under setting [5], 36 % of control.

With `CC(=O)NC(C=O)OCC=O` (stereo not given), the T/C was 106 % of control (dose: 100.0 mg/kg/injection, schedule: Q04DX004 (sc), vehicle: water) and 121 % of control (dose: 200.0 mg/kg/injection, schedule: Q04DX004 (sc), vehicle: water).

Regarding `O=c1[nH]c(=O)n(C2CC(O)C(CO)O2)cc1I` (stereo not given), the T/C (dose: 200.0 mg/kg/injection, schedule: Q01DX010 (sc), vehicle: saline with Tween-80) was 91 % of control.

For `C/C(=C\c1ccccc1)[N+](=O)[O-]`, the T/C by setting is: (dose: 50.0 mg/kg/injection, schedule: Q01DX010 (sc), vehicle: Klucel (hydroxypropylcellulose) (HPC)) 91 % of control; (dose: 100.0 mg/kg/injection, schedule: Q01DX010 (sc), vehicle: Klucel (hydroxypropylcellulose) (HPC)) 110 % of control.

Regarding `Nc1cc2[nH]cnc2c(=O)[nH]1`, the T/C is 62 % of control under setting [6] and 112 % of control (dose: 50.0 mg/kg/injection, schedule: Q01DX010 (sc), vehicle: saline).

For `O=c1n(CC2CO2)c(=O)n(CC2CO2)n1CC1CO1` (stereo not given), the T/C (dose: 37.5 mg/kg/injection, schedule: Q04DX004 (sc), vehicle: suspension in saline) was 76 % of control.

In the case of `C=CCOCC1CO1` (stereo not given), the T/C (dose: 75.0 mg/kg/injection, schedule: Q04DX004 (sc), vehicle: saline) was 120 % of control; the T/C (dose: 150.0 mg/kg/injection, schedule: Q04DX004 (sc), vehicle: saline) is 100 % of control; the T/C (dose: 300.0 mg/kg/injection, schedule: Q04DX004 (sc), vehicle: saline) was 54 % of control.

For the compound `O=C1NC(O)CCN1C1OC(CO)C(O)C1O` (stereo not given), the T/C (dose: 200.0 mg/kg/injection, schedule: Q01DX010 (sc), vehicle: water) is 83 % of control; the T/C (dose: 400.0 mg/kg/injection, schedule: Q01DX010 (sc), vehicle: water) was 70 % of control; the T/C (dose: 800.0 mg/kg/injection, schedule: Q01DX010 (sc), vehicle: water) was 63 % of control; the T/C (dose: 1600.0 mg/kg/injection, schedule: Q01DX010 (sc), vehicle: water) is 67 % of control.

`CCC12C[N+]3([O-])CCc4c([nH]c5ccccc45)C(C(=O)OC)(c4cc5c(cc4OC)N(C)C4C(O)(C(=O)OC)C(OC(C)=O)C6(CC)C=CCN7CCC54C76)CC(C3)C1O2` (stereo not given): the T/C is, setting by setting: (dose: 20.0 mg/kg/injection, schedule: Q04DX004 (sc), vehicle: water) 81 % of control; (dose: 40.0 mg/kg/injection, schedule: Q04DX004 (sc), vehicle: water) 60 % of control; (dose: 80.0 mg/kg/injection, schedule: Q04DX004 (sc), vehicle: water) 85 % of control; (dose: 160.0 mg/kg/injection, schedule: Q04DX004 (sc), vehicle: water) 71 % of control.

For the compound `c1ccc2c(NCCCCCCCCNc3c4ccccc4nc4ccccc34)c3ccccc3nc2c1`, the T/C by setting is: (dose: 10.0 mg/kg/injection, schedule: Q01DX010 (sc), vehicle: Klucel (hydroxypropylcellulose) (HPC)) 67 % of control; (dose: 20.0 mg/kg/injection, schedule: Q01DX010 (sc), vehicle: Klucel (hydroxypropylcellulose) (HPC)) 44 % of control; (dose: 40.0 mg/kg/injection, schedule: Q01DX010 (sc), vehicle: Klucel (hydroxypropylcellulose) (HPC)) 82 % of control.

Turning to `Clc1ccc2nnnn2n1`, the T/C runs as follows: (dose: 100.0 mg/kg/injection, schedule: Q04DX004 (sc), vehicle: saline with Tween-80) 114 % of control; (dose: 200.0 mg/kg/injection, schedule: Q04DX004 (sc), vehicle: saline with Tween-80) 45 % of control.

In the case of `NC(=O)c1ncn(C2OC(CO)C(O)C2O)n1` (stereo not given), the T/C was 93 % of control (dose: 225.0 mg/kg/injection, schedule: Q04DX004 (sc), vehicle: saline); 75 % of control (dose: 450.0 mg/kg/injection, schedule: Q04DX004 (sc), vehicle: saline); 61 % of control (dose: 900.0 mg/kg/injection, schedule: Q04DX004 (sc), vehicle: saline).

With `O=C([CH-]C(=O)C(F)(F)F)c1ccccc1.O=C([CH-]C(=O)C(F)(F)F)c1ccccc1.O=C([CH-]C(=O)C(F)(F)F)c1ccccc1.O=C([CH-]C(=O)C(F)(F)F)c1ccccc1.[Eu+3].c1ccncc1`, the T/C (dose: 800.0 mg/kg/injection, schedule: Q01DX010 (sc), vehicle: Klucel (hydroxypropylcellulose) (HPC)) is 10 % of control and 20 % of control (2×).

In the case of `O=C1C(NCCO)=C(N2CC2)C(=O)C(NCCO)=C1N1CC1`, the T/C under setting [1] is 76 % of control; the T/C (dose: 1.0 mg/kg/injection, schedule: Q04DX004 (sc), vehicle: saline) was 12 % of control; the T/C (dose: 1.5 mg/kg/injection, schedule: Q04DX004 (sc), vehicle: saline) was 86 % of control; the T/C under setting [2] was 21 % of control; the T/C (dose: 3.0 mg/kg/injection, schedule: Q04DX004 (sc), vehicle: saline) was 82 % of control.

Turning to `CN=S(=O)(OCCCCCOS(=O)(=NC)c1ccc(C)cc1)c1ccc(C)cc1` (stereo not given), the T/C (dose: 150.0 mg/kg/injection, schedule: Q04DX004 (sc), vehicle: saline with Tween-80) is 81 % of control.

Consider `COc1ccc2c(c1)CCC(c1ccccc1)=C2c1ccc(OCCN2CCCC2)cc1`, for which the T/C is 87 % of control under setting [3], 108 % of control under setting [4] and 52 % of control under setting [5].

For the compound `COc1cc2c(c(OC)c1OC)-c1ccc(OC)c(=O)cc1[C@@H](NC(=O)CCl)CC2`, the T/C reads like this: (dose: 0.63 mg/kg/injection, schedule: Q04DX004 (sc), vehicle: saline with Tween-80) 60 % of control; (dose: 1.25 mg/kg/injection, schedule: Q04DX004 (sc), vehicle: saline with Tween-80) 32 % of control; (dose: 2.5 mg/kg/injection, schedule: Q04DX004 (sc), vehicle: saline with Tween-80) 57 % of control.

In the case of `C=C1C(=O)O[C@@H]2[C@H](O)[C@@H](C)[C@@H]3C=CC(=O)[C@@]3(C)[C@H](OC(=O)C=C(C)C)[C@H]12`, the T/C is, setting by setting: (dose: 9.38 mg/kg/injection, schedule: Q04DX004 (sc), vehicle: saline with Tween-80) 93 % of control; (dose: 18.75 mg/kg/injection, schedule: Q04DX004 (sc), vehicle: saline with Tween-80) 121 % of control; (dose: 37.5 mg/kg/injection, schedule: Q04DX004 (sc), vehicle: saline with Tween-80) 87 % of control.

With `CN(C)C1C(=O)C(C(=O)NP(=O)(NCCCO)N(CCCl)CCCl)=C(O)C2(O)C(=O)C3=C(O)c4c(O)cccc4C(C)(O)C3CC12` (stereo not given), the T/C reads like this: (dose: 75.0 mg/kg/injection, schedule: Q04DX004 (sc), vehicle: saline with Tween-80) 89 % of control; (dose: 300.0 mg/kg/injection, schedule: Q04DX004 (sc), vehicle: saline with Tween-80) 7 % of control and 32 % of control; (dose: 600.0 mg/kg/injection, schedule: Q04DX004 (sc), vehicle: saline with Tween-80) -99 % of control.

In the case of `C1CN(P2(N3CC3)=NP(N3CC3)(N3CC3)=NP(N3CC3)(N3CC3)=N2)CCO1` (stereo not given), the T/C is, setting by setting: (dose: 6.25 mg/kg/injection, schedule: Q01DX010 (sc), vehicle: saline) 50 % of control; (dose: 12.5 mg/kg/injection, schedule: Q01DX010 (sc), vehicle: saline) 52 % of control; under setting [6], 27 % of control.

Consider `Cc1c(CNc2ccc(C(=O)NC(CC(=O)O)C(=O)O)cc2)ccc2nc(N)nc(N)c12` (stereo not given), for which the T/C (dose: 12.5 mg/kg/injection, schedule: Q04DX004 (sc), vehicle: saline with Tween-80) is 41 % of control.
